Reference: patent US20030134848A1, “Substituted 1-aza-2-imino-heterocycles and their use as nicotinic acetylcholin receptors activators” (priority 2000, published 2003)
Read-outs that look alike come from different tables or passages of the source.

Tests used:
[1] = biological target: α1β1γδ subtype of nicotinic acetylcholine receptors (Rattus norvegicus, UniProt P18916+P25108+P25110); experiment: biochemical; type: binding; details: for Ki: read-out: Affinities for receptors Ki α1β1γδ, rat muscle extract, [3H]-α-Bgt 1 nM; for remaining activity at 100 µM / remaining activity at 1000 µM: read-out: control % of [3H]-α-Bgt binding
Sequence of α1β1γδ subtype of nicotinic acetylcholine receptors (P25109 24-501): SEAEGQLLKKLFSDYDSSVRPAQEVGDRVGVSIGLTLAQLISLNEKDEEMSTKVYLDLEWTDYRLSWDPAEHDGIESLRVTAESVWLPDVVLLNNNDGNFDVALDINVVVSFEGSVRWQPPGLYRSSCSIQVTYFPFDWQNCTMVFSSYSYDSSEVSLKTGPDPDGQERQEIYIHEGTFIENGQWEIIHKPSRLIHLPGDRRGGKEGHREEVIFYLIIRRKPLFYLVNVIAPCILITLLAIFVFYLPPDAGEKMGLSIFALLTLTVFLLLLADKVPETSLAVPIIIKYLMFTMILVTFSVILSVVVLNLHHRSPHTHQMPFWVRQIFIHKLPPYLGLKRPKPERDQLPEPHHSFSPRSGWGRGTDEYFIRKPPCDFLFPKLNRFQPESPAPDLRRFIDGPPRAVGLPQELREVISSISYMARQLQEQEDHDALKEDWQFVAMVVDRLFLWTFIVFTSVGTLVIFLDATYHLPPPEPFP
Sequence of α1β1γδ subtype of nicotinic acetylcholine receptors (P25110 22-517): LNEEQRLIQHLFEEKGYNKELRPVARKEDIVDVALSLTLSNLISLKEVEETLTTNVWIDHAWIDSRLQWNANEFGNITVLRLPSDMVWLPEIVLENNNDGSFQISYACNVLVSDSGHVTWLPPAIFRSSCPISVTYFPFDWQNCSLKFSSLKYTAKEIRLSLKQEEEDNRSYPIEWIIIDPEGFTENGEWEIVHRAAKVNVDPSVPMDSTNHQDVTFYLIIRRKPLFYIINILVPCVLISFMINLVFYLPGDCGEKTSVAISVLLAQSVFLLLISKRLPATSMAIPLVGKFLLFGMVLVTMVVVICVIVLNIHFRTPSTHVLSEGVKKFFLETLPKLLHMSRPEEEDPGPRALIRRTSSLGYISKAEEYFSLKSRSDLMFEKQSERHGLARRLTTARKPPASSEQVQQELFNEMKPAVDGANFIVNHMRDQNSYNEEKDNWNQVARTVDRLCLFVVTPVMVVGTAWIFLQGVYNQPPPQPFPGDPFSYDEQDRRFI
Sequence of α1β1γδ subtype of nicotinic acetylcholine receptors (P25108 21-457): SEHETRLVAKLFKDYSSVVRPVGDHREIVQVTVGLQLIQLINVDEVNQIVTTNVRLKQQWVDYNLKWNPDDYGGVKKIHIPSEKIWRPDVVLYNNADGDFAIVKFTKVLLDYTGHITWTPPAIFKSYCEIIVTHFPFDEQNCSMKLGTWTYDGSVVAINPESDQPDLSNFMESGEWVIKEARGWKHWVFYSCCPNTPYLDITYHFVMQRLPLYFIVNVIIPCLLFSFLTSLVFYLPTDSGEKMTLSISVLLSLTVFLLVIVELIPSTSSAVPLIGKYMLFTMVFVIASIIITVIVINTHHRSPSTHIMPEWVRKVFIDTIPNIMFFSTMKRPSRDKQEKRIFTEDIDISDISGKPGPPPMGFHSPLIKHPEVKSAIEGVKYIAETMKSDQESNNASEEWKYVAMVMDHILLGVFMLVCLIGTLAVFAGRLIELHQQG
Sequence of α1β1γδ subtype of nicotinic acetylcholine receptors (P18916 23-519): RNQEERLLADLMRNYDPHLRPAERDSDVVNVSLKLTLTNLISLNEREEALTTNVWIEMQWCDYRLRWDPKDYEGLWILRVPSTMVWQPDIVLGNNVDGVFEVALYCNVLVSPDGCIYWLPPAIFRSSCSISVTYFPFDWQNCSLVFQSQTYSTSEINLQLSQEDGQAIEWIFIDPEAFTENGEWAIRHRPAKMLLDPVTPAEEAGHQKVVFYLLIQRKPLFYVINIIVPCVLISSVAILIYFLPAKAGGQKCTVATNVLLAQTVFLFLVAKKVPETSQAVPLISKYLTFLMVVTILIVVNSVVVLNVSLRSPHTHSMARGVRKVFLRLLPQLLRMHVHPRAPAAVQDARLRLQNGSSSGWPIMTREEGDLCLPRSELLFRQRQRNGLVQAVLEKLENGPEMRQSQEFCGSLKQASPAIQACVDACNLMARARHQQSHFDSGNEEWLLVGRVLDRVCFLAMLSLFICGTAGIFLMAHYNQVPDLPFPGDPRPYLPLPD
From the text: (§1) The methods for evaluating the binding capabilities of the compounds at nicotinic acetylcholine receptors are different by subtypes of receptors. The binding capabilities of the compounds at α4β2 nicotinic acetylcholine receptors are examined using rat brain membrane obtained from whole homogenized brain, and determining the inhibiting rate of the compounds against [^3H]-cytisine binding to said brain membrane. Furthermore, the binding capabilities of the compounds at α1β1γδ nicotinic acetylcholine receptors are examined using homogenized rat muscle, and determining the inhibiting rate of the compounds against [^3H]-α-bungarotoxin binding to said muscle homogenate.
The affinity of the compounds of the present invention to α1β1γδ subtype of nicotinic acetylcholine receptors was measured by the following method, which was modified method described by Garcha H. S., Thomas P., Spivak C. E., Wonnacott S. & Stolerman I. P., Psychropharmacology, 110, 347-354 (1993).
(1) Preparation of Rat Skeletal Muscles Containing α1β1γδ Subtype of Nicotinic Acetylcholine Receptors
The substantially same animals described in the Biological Experiment 1 were used.
The isolation of α1β1γδ subtype of nicotinic acetylcholine receptors was performed as follow. That is, rat posterior skeletal muscles were isolated just after sacrificed by decapitation, washed with ice-cooled saline solution and then frozen at −80° C. with liquid nitrogen and stored till using. After thawing the frozen muscles, tissue was homogenized (40% w/v) with buffer solution [2.5 mM of sodium phosphate buffer (pH:7.2), 90 mM of NaCl, 2 mM of KCl, 1 mM of EDTA, 2 mM of benzamidine, 0.1 mM of benzethonium chloride, 0.1 mM of PMSF, 0.01% of sodium azide] in Waring blender (Waring blender 34BL97; WARING PRODUCTS DIVISION DYNAMICS CORPORATION OF AMERICA) for 60 seconds. The homogenate were centrifuged under 20,000×G for 60 minutes at 4° C. The supernatant was separated and the resulting pellet was added to the same buffer (1.5 ml/g wet weight), and homogenized under the same conditions. Triton X100 (2% w/v) was added and the mixture was stirred for 3 hours at 4° C. The centrifugation at 100,000×G for 60 minutes at 4° C. yielded the rat muscle extract as supernatant. This was stored at 4° C. for up to 4 weeks, and used for binding assays at receptors.
(2) Experiments of α1β1γδ Subtype of Nicotinic Acetylcholine Receptors Binding
Receptors binding experiments were performed as follow. That is, the extract of rat muscle containing 600-900 μg of protein was added to test tubes containing test compounds and incubated for 15 minutes at 37° C. Then, to this mixture was added 1 nM of [^3H]-α-bungarotoxin (α-Bgt) and further incubated for 2 hours. The samples were isolated by vacuum filtration onto Whatman GF/B filters, which were prerinsed with 0.5% polyethylenimine just prior to sample filtration, using Brandel multi manifold cell harvester. The filters were rapidly rinsed with washing solution (10 mM of KH2PO4, 150 mM of NaCl, pH 7.2, room temperature) (5×1 ml). The filters were counted in 3 ml of clearsol I (Nacalai Tesque Inc.). The determination of nonspecific binding was incubated in the presence of 1 μM α-Bgt. The solutions containing α-Bgt (labeled/non-labeled) were prepared by using buffer solution containing 0.25% of BSA. In the receptor binding experiments, said buffer solution was added for adjusting the final concentration of BSA to be 0.05%.
The analyses of the experimental results were conducted by the same way as described in the Biological Experiment 1.

[2] = biological target: T1, α4β2 subtype of nicotinic acetylcholine receptors (Rattus norvegicus, UniProt P09483+P12390); experiment: Binding assay at α4β2 subtype of nicotinic acetylcholine receptors ([3H]-cytisine, rat brain membrane); details: for remaining activity at 1 µM / remaining activity at 10 µM: read-out: control % of [3H]-cytisine binding
T1 construct: rat brain membrane obtained from whole homogenized brain; from tissue; host or cells: whole brain of Fischer-344 male rats, membrane fraction
T1 sequence (P09483 31-630): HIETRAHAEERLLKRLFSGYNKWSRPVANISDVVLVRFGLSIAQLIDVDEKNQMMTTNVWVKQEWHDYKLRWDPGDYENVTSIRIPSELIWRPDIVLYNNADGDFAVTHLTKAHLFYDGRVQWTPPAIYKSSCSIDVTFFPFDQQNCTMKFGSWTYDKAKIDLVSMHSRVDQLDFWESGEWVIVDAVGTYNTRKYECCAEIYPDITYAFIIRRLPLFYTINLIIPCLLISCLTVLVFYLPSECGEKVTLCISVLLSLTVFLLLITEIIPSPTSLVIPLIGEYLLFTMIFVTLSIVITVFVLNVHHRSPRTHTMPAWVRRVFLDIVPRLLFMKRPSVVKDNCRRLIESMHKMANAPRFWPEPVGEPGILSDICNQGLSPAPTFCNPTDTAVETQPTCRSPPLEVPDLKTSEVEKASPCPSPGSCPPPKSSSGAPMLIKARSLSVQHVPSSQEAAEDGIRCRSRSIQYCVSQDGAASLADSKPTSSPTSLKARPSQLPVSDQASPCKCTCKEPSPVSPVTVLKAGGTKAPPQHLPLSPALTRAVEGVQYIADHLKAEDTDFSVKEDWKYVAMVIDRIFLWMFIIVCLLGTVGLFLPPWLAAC
T1 sequence (P12390 25-500): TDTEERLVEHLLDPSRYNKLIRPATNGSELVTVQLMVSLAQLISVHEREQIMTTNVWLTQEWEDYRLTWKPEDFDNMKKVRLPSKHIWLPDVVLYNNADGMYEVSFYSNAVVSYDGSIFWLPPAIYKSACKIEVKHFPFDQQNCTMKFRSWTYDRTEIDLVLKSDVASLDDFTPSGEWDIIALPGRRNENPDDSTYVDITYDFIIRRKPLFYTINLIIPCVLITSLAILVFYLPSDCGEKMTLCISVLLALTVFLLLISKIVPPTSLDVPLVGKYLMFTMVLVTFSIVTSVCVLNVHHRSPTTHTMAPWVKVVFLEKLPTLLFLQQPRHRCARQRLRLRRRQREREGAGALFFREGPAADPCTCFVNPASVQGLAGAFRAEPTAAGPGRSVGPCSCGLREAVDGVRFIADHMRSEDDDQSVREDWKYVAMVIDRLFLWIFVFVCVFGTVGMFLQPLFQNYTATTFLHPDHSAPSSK
From the text: as §1
The affinity of the compounds of the present invention to α4β2 subtype of nicotinic acetylcholine receptors was performed by the following method, which was modified method described by Pabreza L. A., Dhawan S. & Kellar K. J., Mol. Pharm., 39, 9-12 (1990), and by Anderson D. J. & Arneric S. P., Eur. J. Pharm., 253, 261-267 (1994).
(1) Preparation of Rat Brain Membrane Containing α4β2 Subtype of Nicotinic Acetylcholine Receptors
Fischer-344 strain male rats (body weight: 200-240 g; 9 weeks old) obtained from Charles River Japan were used. Rats were housed in the breeding cage controlled of the room temperature at 23±1° C., and the humidity of 55±5% for 1 to 4 weeks. Rats (3 to 4 rats per a cage) were housed with lights on for 12 hours daily (from 7:00 to 19:00), and allowed free access to food and water.
Preparation of rat brain membrane containing α4β2 subtype of nicotinic acetylcholine receptors was performed as follow. That is, rat brains were isolated just after sacrificed by decapitation, washed with ice-cooled saline solution and then frozen at −80° C. with liquid nitrogen and stored till using. After thawing the frozen brain, the brain was homogenized in 10 volumes of ice-cooled buffer solution (50 mM of Tris-HCl, 120 mM of NaCl, 5 mM of KCl, 1 mM of MgCl2, 2 mM of CaCl2; pH 7.4; 4° C.) using homogenizer (HG30, Hitachi Kohki Ltd.) for 30 seconds, and the homogenate were centrifuged under 1,000×G for 10 minutes at 4° C. The resulting supernatant was separated and the pellet was homogenized again with half volume of aforementioned prior buffer solution and centrifuged under the same conditions. Combined supernatant was further centrifuged under 40,000×G for 20 minutes at 4° C. The pellet was suspended in buffer solution and used for binding assays at receptors.
(2) Experiments of α4β2 Subtype of Nicotinic Acetylcholine Receptors Binding
Suspensions of membrane pellets containing 400-600 μg of protein were added to test tubes containing test compounds and [^3H]-cytisine (2 nM) in a final volume of 200 μl and incubated for 75 minutes in ice-cooled bath. The samples were isolated by vacuum filtration onto Whatman GF/B filters, which were prerinsed with 0.5% polyethylenimine just prior to sample filtration, using Brandel multi manifold cell harvester. The filters were rapidly washed with buffer solution (3×1 ml). The filters were counted in 3 ml of clearsol I (Nacalai Tesque Inc.).
The analyses of the experimental results were conducted by using the Accufit Competition Program (Beckman Ltd.).

[3] = 1 μM of test compound, rat brain membrane
[4] = 10 μM of test compound, rat brain membrane

With `CN1CCCC1c1cccnc1` (single isomer, unassigned; (-)) [Nicotine, (−)-nicotine, reference compound] the Ki [1] was 182 µM.

Work on `N=C1SCCN1CC(=O)c1ccccc1` [Compound 1, 2-imino-3-phenacylthiazolidine] yielded a remaining activity at 1 µM [2, 3] of 93% and a remaining activity at 10 µM [2, 4] of 68%.

With `CC(=O)Cn1ccsc1=N` [Compound 2, 3-acetonyl-2-imino-2,3-dihydrothiazole] the remaining activity at 1 µM [2, 3] was 107% and the remaining activity at 10 µM [2, 4] was 101%.

`N=c1ncccn1CCc1ccc(Cl)nc1` [Compound 3, 1-[2-(6-chloro-3-pyridyl)ethyl]-2-imino-1,2-dihydropyrimidine] was tested, and the remaining activity at 100 µM [1] was 72%, the remaining activity at 1000 µM [1] was 39% and the remaining activity at 1 µM [2] was 72%. The remaining activity at 10 µM [2] was 17%.

With `Cc1csc(=N)n1CCc1ccc(Cl)nc1` [Compound 4, 3-[2-(6-chloro-3-pyridyl)ethyl]-2-imino-4-methyl-2,3-dihydrothiazole] the Ki [1] was 10 µM and the Ki [2] was 5.6 nM.

`N=C1SCCN1CCc1ccc(Cl)nc1` [Compound 5, 3-[2-(6-chloro-3-pyridyl)ethyl]-2-iminothiazolidine] gave a Ki [1] of 34 µM and a Ki [2] of 4.8 nM.

For `Cc1cn(CCc2ccc(Cl)nc2)c(=N)s1` [Compound 6, 3-[2-(6-chloro-3-pyridyl)ethyl]-2-imino-5-methyl-2,3-dihydro-thiazole], the remaining activity at 100 µM [1] was 82%, the remaining activity at 1000 µM [1] was 61% and the remaining activity at 1 µM [2] was 77%. It also gave a remaining activity at 10 µM [2] of 35%.

With `Nc1nccn1CCc1ccc(Cl)nc1` [Compound 7, 2-amino-1-[2-(6-chloro-pyridyl)ethyl]imidazole] the Ki [1] was 184 µM and the Ki [2] was 4.9 nM.

Compound `N=C1SCCN1CC(=O)c1ccc(Cl)nc1` [Compound 8, 1-(6-chloro-3-pyridyl)-2-(2-imino-3-thiazolidinyl)-1-ethanone] has a Ki [1] of 1830 µM and a Ki [2] of 62 nM.

`N=C1SCCN1CC(O)c1ccc(Cl)nc1` (centres unmarked) [Compound 9, 1-(6-Chloro-3-pyridyl)-2-(2-imino-3-thiazolidinyl)-1-ethanol] gave a remaining activity at 100 µM [1] of 72%, a remaining activity at 1000 µM [1] of 35% and a remaining activity at 1 µM [2] of 97%. For the same compound, the remaining activity at 10 µM [2] was 43%.

Work on `Cc1sc(=N)n(CCc2ccc(Cl)nc2)c1C` [Compound 10, 3-[2-(6-chloro-3-pyridyl)ethyl]-2-imino-4,5-dimethyl-2,3-dihydrothiazole] yielded a Ki [1] of 215 µM and a Ki [2] of 51 nM.

`N=c1ccc(Cl)nn1CCc1ccc(Cl)nc1` [Compound 15, 6-chloro-2-[2-(6-chloro-3-pyridyl)ethyl]-3-imino-2,3-dihydropyridazine] showed a remaining activity at 100 µM [1] of 93%, a remaining activity at 1000 µM [1] of 61% and a remaining activity at 1 µM [2] of 60%. For the same compound, the remaining activity at 10 µM [2] was 12%.

`N=c1ccccn1CCc1ccc(Cl)nc1` [Compound 16, 1-[2-(6-chloro-3-pyridyl)ethyl]-2-imino-1,2-dihydropyridine] gave a Ki [1] of 227 µM and a Ki [2] of 61 nM.

Work on `Nc1nccn1CCc1ccc(Cl)cc1` [Compound 17, 2-amino-1-[2-(4-chlorophenyl)ethyl]imidazole] yielded a remaining activity at 100 µM [1] of 83%, a remaining activity at 1000 µM [1] of 67% and a remaining activity at 1 µM [2, 3] of 97%. For the same compound, the remaining activity at 10 µM [2, 4] was 78%.

`CC(Cn1ccsc1=N)c1ccc(Cl)nc1` (centres unmarked) [Compound 18, 3-[2-(6-chloro-3-pyridyl)propyl]-2-imino-2,3-dihydrothiazole] gave a Ki [1] of 173 µM and a Ki [2] of 84 nM.

With `Nc1nccn1CCc1ccccn1` [Compound 19, 2-amino-1-[2-(2-pyridyl)ethyl]imidazole] the remaining activity at 100 µM [1] was 106%, the remaining activity at 1000 µM [1] was 86% and the remaining activity at 1 µM [2, 3] was 103%. It also gave a remaining activity at 10 µM [2, 4] of 106%.

`Nc1nccn1CCc1ccncc1` [Compound 20, 2-amino-1-[2-(4-pyridyl)ethyl]imidazole] showed a remaining activity at 100 µM [1] of 109%, a remaining activity at 1000 µM [1] of 90% and a remaining activity at 1 µM [2, 3] of 97%. The remaining activity at 10 µM [2, 4] was 95%.

Compound `Cc1nc(N)n(CCc2ccc(Cl)nc2)c1C` [Compound 21, 2-amino-1-[2-(6-chloro-3-pyridyl)ethyl]-4,5-dimethylimidazole] has a Ki [1] of 175 µM and a Ki [2] of 97 nM.

In the case of `N=c1sccn1CCc1ccc(Cl)nc1` [Compound 22, 3-[2-(6-chloro-3-pyridyl)ethyl]-2-imino-2,3-dihydrothiazole], the Ki [1] is reported as 132 µM and the Ki [2] is reported as 7.4 nM.

With `N=c1sccn1CCc1cnc(Cl)s1` [Compound 24, 3-[2-(2-chloro-5-thiazolyl)ethyl]-2-imino-2,3-dihydrothiazole] the Ki [1] was 58 µM and the Ki [2] was 35 nM.

With `Nc1nccn1CCc1ccc(O)cc1` [Compound 26, 2-amino-1-[2-(4-hydroxyphenyl)ethyl]imidazole] the remaining activity at 100 µM [1] was 81%, the remaining activity at 1000 µM [1] was 50% and the remaining activity at 1 µM [2, 3] was 93%. The remaining activity at 10 µM [2, 4] was 60%.

`Cc1cncc(CCn2ccsc2=N)c1` [Compound 28, 2-imino-3-[2-(5-methyl-3-pyridyl)ethyl]-2,3-dihydrothiazole] showed a Ki [1] of 94 µM and a Ki ([2]; rat brain membrane, [3H]-cytisine 2 nM, read-out: Affinities for receptors Ki α4β2) of 27 nM.

For `Nc1nccn1CCc1ccccc1Sc1ccc(O)cc1` [Compound 32, 2-amino-1-{2-[2-(4-hydroxyphenyl)thiophenyl]ethyl}-imidazole], the remaining activity at 100 µM [1] was 107%, the remaining activity at 1000 µM [1] was 81% and the remaining activity at 1 µM [2, 3] was 102%. The remaining activity at 10 µM [2, 4] was 73%.

`COc1ccc(Sc2ccccc2CCn2ccnc2N)cc1` [Compound 33, 2-amino-1-{2-[2-(4-methoxyphenyl)thiophenyl]ethyl}-imidazole] showed a remaining activity at 100 µM [1] of 119%, a remaining activity at 1000 µM [1] of 85% and a remaining activity at 1 µM [2, 3] of 111%. It also gave a remaining activity at 10 µM [2, 4] of 92%.

`Nc1nccn1CCc1cncnc1Cl` [Compound 35, 2-amino-1-[2-(4-chloro-5-pyrimidyl)ethyl]imidazole] showed a remaining activity at 100 µM [1] of 87%, a remaining activity at 1000 µM [1] of 49% and a remaining activity at 1 µM [2] of 61%. For the same compound, the remaining activity at 10 µM [2] was 17%.
